Experimental data from patent US20120184765A1, “Process for preparing alkyl phosphates” (LANXESS DEUTSCHLAND GMBH, priority 2011, published 2012).

Experiment: Solubility of tetraalkyl bisphosphates in water (separating funnel test)
Format: physicochemical
Settings: for water solubility (phase separation observed): 50.0 g tetraalkyl bisphosphate + 50.0 g fully demineralized water, shaken, left to stand 1 hour, residue of aqueous phase / weight of aqueous phase; for solubility / miscibility in water (in words): conclusion from the phase separation experiments; for phase separation in further experiments: different weight ratios of tetraalkyl bisphosphate and water
Protocol: A separating funnel was charged with 50.0 g of tetraalkyl bisphosphate and 50.0 g of fully demineralized water, and was shaken vigorously and then left to stand for 1 hour. If phase separation became apparent, the lower, aqueous phase was carefully separated off and weighed (mw). The aqueous phase was concentrated to constant weight under reduced pressure on a rotary evaporator, and the residue was likewise weighed (mR).

Question: With CCOP(=O)(OCC)OCCOCCOP(=O)(OCC)OCC [Tetraethyldiethylene glycol bisphosphate, tetraethyldiethylene glycol bisphosphate] as the molecule, how does the “water solubility (phase separation observed)” value read?
Answer: no phase separation

Question: What about the “solubility / miscibility in water (in words)” value of the same molecule?
Answer: fully water-soluble

Question: And the “phase separation in further experiments” value?
Answer: no phase separation

Question: With “tetramethyldiethylene glycol bisphosphate” as the molecule, how does the “water solubility (phase separation observed)” value read?
Answer: no phase separation

Question: What about the “solubility / miscibility in water (in words)” value of the same molecule?
Answer: fully water-soluble

Question: And the “phase separation in further experiments” value?
Answer: no phase separation
